Like-named read-outs stand apart in the source and are kept apart here.
Tested on: MRSA USA300
Test: Antibacterial activity assay (MIC by broth microdilution, MBC by subculture)
Type: cell-based, Staphylococcus aureus
Procedure: The antimicrobial activity was based on MIC and MBC; MIC is the minimum inhibitory concentration and MBC is the minimum bactericidal concentration. The MIC of individual test agents against MRSA USA300 strains was determined using the broth microdilution method according to CLSI guidelines. Briefly, overnight bacterial cultures in LB medium were diluted 1:50 in fresh LB medium and incubated at 37° C. until reaching an OD600 of 0.5 to 0.6. Bacterial suspensions were diluted to a final concentration of 5×10^5 cfu/mL in fresh CAMHB and then exposed to each test agent at increasing doses in triplicate in 96-well plates for 24 hours at 37° C. The MIC of each agent was defined as the lowest concentration without visible bacterial growth. […] The lowest broth dilution that had no viable bacteria was considered the MBC.
Then, the combination effect was measured by calculating their corresponding fractional inhibitory concentration index (FICI) with the equation ΣFIC (FICi)=FICA+FICB=(CombA/MICA)+(CombB/MICB), where MICA and MICB are the MICs of drugs A and B alone, respectively, and CombA and CombB are the concentrations of drugs A and B in combination, respectively. […] was defined as an FICI≤0.5, no interaction was defined as an FICI>0.5-4.0, and antagonism was defined as an FICI>4.

[1] = Staphylococcus aureus, amide compound alone, read-out: MBC
[2] = Staphylococcus aureus, amide compound alone, read-out: MIC
[3] = Staphylococcus aureus, fatty acid alone, read-out: MBC fatty acid
[4] = Staphylococcus aureus, fatty acid alone, read-out: MIC fatty acid

Row | Structure (SMILES) | MIC (+8 mg/L DHA) [µg/mL] | MBC [1] [µg/mL] | MIC [2] [µg/mL] | MBC [3] [µg/mL] | MIC [4] [µg/mL] | MBC (+8 mg/L DHA) [µg/mL] | MBC (amide compound alone) [µg/mL] | MIC (amide compound alone) [µg/mL]
1 | O=C(Nc1ccc2c(c1)OCO2)Nc1ccc(Cl)c(C(F)(F)F)c1 [1-159, reference compound] | 0.125 | 64 | 32 | – | – | – | – | –
2 | O=C(Nc1ccc(Cl)c(C(F)(F)F)c1)Nc1cccc(OF)c1OF [1-164, reference compound] | 0.03125 | 4 | 0.25 | – | – | – | – | –
3 | O=C(Nc1ccc(Oc2ccccc2)cc1)Nc1ccc(Cl)c(C(F)(F)F)c1 [3-006, reference compound] | 0.0078 | 1 | 0.125 | – | – | – | – | –
4 | CC/C=C\C/C=C\C/C=C\C/C=C\C/C=C\CCCC(=O)O [Eicosapentaenoic acid, eicosapentaenoic acid] | – | – | – | 1020 | 64 | – | – | –
5 | FC(F)(F)c1cc(Nc2cncc(Nc3ccc(Cl)c(C(F)(F)F)c3)n2)ccc1Cl [SC5010] | >64 | > 64 | > 64 | – | – | >64 | – | –
6 | C#Cc1cccc(Nc2cncc(Nc3cccc(C#C)c3)n2)c1 [SC5015] | >64 | > 64 | > 64 | – | – | >64 | – | –
7 | O=C(Nc1ccc(Cl)c(C(F)(F)F)c1)C1(C(=O)Nc2ccc(Cl)c(C(F)(F)F)c2)CC1 [SC5020] | 0.125 | > 64 | > 64 | – | – | 0.125 | – | –
8 | C#Cc1cccc(NC(=O)C2(C(=O)Nc3cccc(C#C)c3)CC2)c1 [SC5021] | 64 | > 64 | > 64 | – | – | 64 | – | –
9 | O=C(Nc1ccccc1)C(CCCl)C(=O)Nc1ccccc1 [SC5022] | >64 | > 64 | > 64 | – | – | >64 | – | –
10 | O=C(Nc1cccc(C(F)(F)F)c1)C(CCCl)C(=O)Nc1cccc(C(F)(F)F)c1 [SC5023] | 16 | > 64 | > 64 | – | – | 16 | – | –
11 | O=C(Nc1ccc(OC(F)(F)F)cc1)C(CCCl)C(=O)Nc1ccc(OC(F)(F)F)cc1 [SC5024] | 8 | > 64 | > 64 | – | – | 8 | – | –
12 | O=C(Nc1cc(Cl)cc(Cl)c1)C(CCCl)C(=O)Nc1cc(Cl)cc(Cl)c1 [SC5025] | 2 | 32 | 16 | – | – | 2 | – | –
13 | C#Cc1cccc(NC(=O)C(CCCl)C(=O)Nc2cccc(C#C)c2)c1 [SC5026] | >64 | > 64 | > 64 | – | – | >64 | – | –
14 | O=C(Nc1cccc(Cl)c1)C(CCCl)C(=O)Nc1cccc(Cl)c1 [SC5027] | 64 | > 64 | > 64 | – | – | >64 | – | –
15 | O=C(Nc1ccc([N+](=O)[O-])c(C(F)(F)F)c1)C(CCCl)C(=O)Nc1ccc([N+](=O)[O-])c(C(F)(F)F)c1 [SC5034] | 1 | 32 | 16 | – | – | 1 | – | –
16 | O=C(Nc1cc(Cl)cc(Cl)c1)C(CCCl)C(=O)Nc1ccc(Cl)c(C(F)(F)F)c1 (centres unmarked) [SC5035] | 1 | 32 | 16 | – | – | 2 | – | –
17 | C=CCC(C(=O)Nc1ccc(Cl)c(C(F)(F)F)c1)C(=O)Nc1ccc(Cl)c(C(F)(F)F)c1 [SC5037] | 0.0039 | 2 | 1 | – | – | 0.0078 | – | –
18 | C#Cc1cccc(NC(=O)C(CC=C)C(=O)Nc2cccc(C#C)c2)c1 [SC5038] | >64 | > 64 | > 64 | – | – | >64 | – | –

Row | Structure (SMILES) | MIC (+8 mg/L DHA) [µg/mL] | MBC [1] [µg/mL] | MIC [2] [µg/mL] | MBC [3] [µg/mL] | MIC [4] [µg/mL] | MBC (+8 mg/L DHA) [µg/mL] | MBC (amide compound alone) [µg/mL] | MIC (amide compound alone) [µg/mL]
19 | C=CCC(C(=O)Nc1cc(Cl)cc(Cl)c1)C(=O)Nc1cc(Cl)cc(Cl)c1 [SC5040] | 0.0039 | 2 | 1 | – | – | 0.125 | – | –
20 | O=C(Nc1cc(Cl)cc(Cl)c1)C(CCCl)C(=O)Nc1ccc([N+](=O)[O-])c(C(F)(F)F)c1 (centres unmarked) [SC5041] | 0.0625 | 2 | 0.5 | – | – | 0.0625 | – | –
21 | O=C(Nc1cc(Cl)cc(Cl)c1)C(Cc1ccccc1)C(=O)Nc1cc(Cl)cc(Cl)c1 [SC5043] | 0.0156 | 4 | 2 | – | – | 0.0156 | – | –
22 | O=C(Nc1cc(C(F)(F)F)cc(C(F)(F)F)c1)C(Cc1ccccc1)C(=O)Nc1cc(C(F)(F)F)cc(C(F)(F)F)c1 [SC5044] | 0.000975 | 2 | 0.5 | – | – | 0.0078 | – | –
23 | O=C(NC1CCCCC1)C(CCCl)C(=O)NC1CCCCC1 [SC5048] | >64 | > 64 | > 64 | – | – | >64 | – | –
24 | CCCNC(=O)C(CCCl)C(=O)Nc1ccc(Cl)c(C(F)(F)F)c1 (centres unmarked) [SC5049] | 8 | > 64 | > 64 | – | – | 8 | – | –
25 | C=CCNC(=O)C(CCCl)C(=O)Nc1ccc(Cl)c(C(F)(F)F)c1 (centres unmarked) [SC5050] | 8 | > 64 | > 64 | – | – | 16 | – | –
26 | C=CCNC(=O)C(CCCl)C(=O)NCC=C [SC5052] | 1 | > 64 | > 64 | – | – | 2 | – | –
27 | O=C(Nc1ccc(Cl)c(C(F)(F)F)c1)C(CCCl)C(=O)NC1CCCCC1 (centres unmarked) [SC5053] | 1 | > 64 | > 64 | – | – | 2 | – | –
28 | CN(C(=O)C(CCCl)C(=O)N(C)c1ccc(Cl)c(C(F)(F)F)c1)c1ccc(Cl)c(C(F)(F)F)c1 [SC5101] | >64 | > 64 | > 64 | – | – | >64 | – | –
29 | CN(C(=O)C(CCCl)C(=O)N(C)c1cc(Cl)cc(Cl)c1)c1cc(Cl)cc(Cl)c1 [SC5102] | >64 | > 64 | > 64 | – | – | >64 | – | –
30 | O=C(Nc1ccc(Cl)c(C(F)(F)F)c1)C(CCCCl)C(=O)Nc1ccc(Cl)c(C(F)(F)F)c1 [SC5103] | 0.0039 | 2 | 0.25 | – | – | 0.0078 | – | –
31 | O=C(Nc1cc(Cl)cc(Cl)c1)C(F)(CCCl)C(=O)Nc1cc(Cl)cc(Cl)c1 [SC5104] | 0.0078 | 4 | 0.5 | – | – | 0.0078 | – | –
32 | O=C(Nc1ccc(Cl)c(C(F)(F)F)c1)C(F)(CCCl)C(=O)Nc1ccc(Cl)c(C(F)(F)F)c1 [SC5105] | 0.125 | > 64 | > 64 | – | – | 0.125 | – | –
33 | O=C(CC(=O)Nc1ccc(Cl)c(C(F)(F)F)c1)Nc1ccc(Cl)c(C(F)(F)F)c1 [SC5106] | 0.25 | > 64 | > 64 | – | – | 0.5 | – | –
34 | O=C(Nc1ccc(Cl)c(C(F)(F)F)c1)C1(C(=O)Nc2ccc(Cl)c(C(F)(F)F)c2)CC1 [SC5107] | 0.0625 | – | – | – | – | 0.125 | >64 | >64
35 | O=C(Nc1ccc(Cl)c(C(F)(F)F)c1)Nc1ccc(Cl)c(C(F)(F)F)c1 [SC5178] | 0.00012 | 2 | 0.25 | – | – | 0.00156 | – | –
36 | CCCCC/C=C\C/C=C\C/C=C\C/C=C\CCCC(=O)O [arachidonic acid] | – | – | – | 1020 | 128 | – | – | –

Source: US20260130885A1, “ANTIMICROBIAL COMPOSITIONS, PHARMACEUTICAL COMPOSITIONS AND USE THEREOF” (priority 2022, published 2026)
